Measurements from PubChem BioAssay AID330 (DTP/NCI, 2004).
Values joined by “and” are separate entries in the source; they are usually repeats but may differ in a detail not shown here. Identical values can stand only once. Inconclusive results and toxic doses are left out. How the source made its calls: active means survival T/C of 150% or more; inactive means T/C below 125% in these data.

Tested on: P388 leukemia ip, CD2F1 mice, survival T/C
Test: NCI In Vivo Anticancer Drug Screen. Data for tumor model P388 Leukemia (intraperitoneal) in CD2F1 (CDF1) mice
Conditions: endpoint: median survival time, higher = longer survival
Summary of the method: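 Mice carrying the transplanted tumor received test compound or vehicle. Survival was recorded in each group, and the value is the treated-group measurement divided by that of the vehicle-treated control group.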

[1] = dose: 60.0 mg/kg/injection, schedule: Q01DX005 (ip), vehicle: saline with Tween-80
[2] = dose: 120.0 mg/kg/injection, schedule: Q01DX005 (ip), vehicle: saline with Tween-80
[3] = dose: 240.0 mg/kg/injection, schedule: Q01DX005 (ip), vehicle: saline with Tween-80
[4] = dose: 100.0 mg/kg/injection, schedule: Q01DX001 (ip), vehicle: saline with Tween-80
[5] = dose: 200.0 mg/kg/injection, schedule: Q01DX001 (ip), vehicle: saline with Tween-80
[6] = dose: 400.0 mg/kg/injection, schedule: Q01DX001 (ip), vehicle: saline with Tween-80
[7] = dose: 50.0 mg/kg/injection, schedule: Q01DX009 (ip), vehicle: saline with Tween-80
[8] = dose: 100.0 mg/kg/injection, schedule: Q01DX009 (ip), vehicle: saline with Tween-80
[9] = dose: 200.0 mg/kg/injection, schedule: Q01DX009 (ip), vehicle: saline with Tween-80
[10] = dose: 50.0 mg/kg/injection, schedule: Q01DX005 (ip), vehicle: saline
[11] = dose: 100.0 mg/kg/injection, schedule: Q01DX005 (ip), vehicle: saline
[12] = dose: 200.0 mg/kg/injection, schedule: Q01DX005 (ip), vehicle: saline
[13] = dose: 50.0 mg/kg/injection, schedule: Q01DX009 (ip), vehicle: saline

Measured: T/C

O=[N+]([O-])c1ccc(N=C/C=C\Nc2ccc([N+](=O)[O-])cc2)cc1
inactive: dose: 60.0 mg/kg/injection, schedule: Q01DX005 (ip), vehicle: Klucel (hydroxypropylcellulose) (HPC) 87 % of control | dose: 120.0 mg/kg/injection, schedule: Q01DX005 (ip), vehicle: Klucel (hydroxypropylcellulose) (HPC) 93 % of control | dose: 240.0 mg/kg/injection, schedule: Q01DX005 (ip), vehicle: Klucel (hydroxypropylcellulose) (HPC) 104 % of control

CCCCCC(=O)C(C)(c1nc2n(c1O)/C(=N/C(=O)Nc1ccc(Cl)cc1)N=N2)c1nc2n(c1O)/C(=N/C(=O)Nc1ccc(Cl)cc1)N=N2
inactive: [1] 89 % of control | [2] 88 % of control | [3] 86 % of control

CCOC(=O)c1[nH]c2c(cc(C=O)c3ccccc32)c1C
inactive: [4] 92 % of control | [5] 91 % of control | [6] 90 % of control

O=[N+]([O-])c1ccc(N2CCN(CCO)CC2)c2c1no[n+]2[O-]
inactive: dose: 3.75 mg/kg/injection, schedule: Q01DX009 (ip), vehicle: saline 98 % of control and 100 % of control and 86 % of control | dose: 7.5 mg/kg/injection, schedule: Q01DX009 (ip), vehicle: saline 100 % of control and 97 % of control | dose: 15.0 mg/kg/injection, schedule: Q01DX009 (ip), vehicle: saline 103 % of control (2×) and 90 % of control | dose: 30.0 mg/kg/injection, schedule: Q01DX009 (ip), vehicle: saline 100 % of control and 101 % of control and 95 % of control | dose: 50.0 mg/kg/injection, schedule: Q01DX009 (ip), vehicle: suspension in saline 109 % of control

COC(=O)c1nnn(-c2cccc(C(F)(F)F)c2)c1N
inactive: [1] 89 % of control | [2] 90 % of control | [3] 100 % of control

CC1=C(Cl)C(=O)c2c(O)cccc2C1=O
inactive: dose: 1.0 mg/kg/injection, schedule: Q01DX005 (ip), vehicle: Klucel + Tween-80 91 % of control | dose: 2.0 mg/kg/injection, schedule: Q01DX005 (ip), vehicle: Klucel + Tween-80 94 % of control | dose: 4.0 mg/kg/injection, schedule: Q01DX005 (ip), vehicle: Klucel + Tween-80 97 % of control

O=c1[nH]c2nc3ccccc3n2c(=O)c2ccccc12
inactive: dose: 100.0 mg/kg/injection, schedule: Q01DX001 (ip), vehicle: Klucel (hydroxypropylcellulose) (HPC) 98 % of control | dose: 200.0 mg/kg/injection, schedule: Q01DX001 (ip), vehicle: Klucel (hydroxypropylcellulose) (HPC) 98 % of control | dose: 400.0 mg/kg/injection, schedule: Q01DX001 (ip), vehicle: Klucel (hydroxypropylcellulose) (HPC) 95 % of control

CCN(CC)CCNC(=O)C(O)C1CCCCC1 (stereo unspecified)
inactive: [1] 99 % of control | [2] 99 % of control

CC(=O)Oc1ccccc1C(=O)OC(C)c1ccccc1 (stereo unspecified)
inactive: dose: 50.0 mg/kg/injection, schedule: Q01DX005 (ip), vehicle: Klucel (hydroxypropylcellulose) (HPC) 100 % of control | dose: 100.0 mg/kg/injection, schedule: Q01DX005 (ip), vehicle: Klucel (hydroxypropylcellulose) (HPC) 98 % of control | dose: 200.0 mg/kg/injection, schedule: Q01DX005 (ip), vehicle: Klucel (hydroxypropylcellulose) (HPC) 104 % of control

O=C1CC2C1C1C=CC2n2c(=O)n(-c3ccccc3)c(=O)n21 (stereo unspecified)
inactive: dose: 12.5 mg/kg/injection, schedule: Q04DX002 (ip), vehicle: saline with Tween-80 98 % of control | dose: 25.0 mg/kg/injection, schedule: Q04DX002 (ip), vehicle: saline with Tween-80 99 % of control | dose: 50.0 mg/kg/injection, schedule: Q04DX002 (ip), vehicle: saline with Tween-80 101 % of control

Cc1ccc(C2=C/C(=C/c3ccc(N(CCC#N)CCC#N)cc3)C(=O)O2)cc1C
inactive: [4] 94 % of control | [5] 90 % of control | [6] 97 % of control

CCCCC/C=C/C/C=C\CCCCCCCC(=O)NC(Cc1ccc(C)cc1)c1ccccc1 (stereo unspecified)
inactive: [7] 98 % of control | [8] 100 % of control | [9] 100 % of control

COc1cc(C)c2c(=O)c3c(oc2c1)C(=O)c1c(O)c(OC)cc(O)c1C3=O
inactive: dose: 12.5 mg/kg/injection, schedule: Q01DX009 (ip), vehicle: saline with Tween-80 115 % of control | dose: 25.0 mg/kg/injection, schedule: Q01DX009 (ip), vehicle: saline with Tween-80 108 % of control | [7] 114 % of control | [8] 115 % of control | [9] 103 % of control

CCOC(=O)C12CCCC1=NN=C2C1=NN=C2CCCC21C(=O)OCC (stereo unspecified)
inactive: dose: 60.0 mg/kg/injection, schedule: Q01DX005 (ip), vehicle: saline 103 % of control | dose: 120.0 mg/kg/injection, schedule: Q01DX005 (ip), vehicle: saline 98 % of control | dose: 240.0 mg/kg/injection, schedule: Q01DX005 (ip), vehicle: saline 101 % of control

O=C(CO)C(OC1OC(CO)C(O)C(O)C1O)C(O)C(O)CO (stereo unspecified)
inactive: [10] 109 % of control | [11] 97 % of control | [12] 109 % of control

C=C(C)CC1C(=O)OC(=O)C1(CC(=C)C)CC(=C)C (stereo unspecified)
inactive: [13] 100 % of control | dose: 100.0 mg/kg/injection, schedule: Q01DX009 (ip), vehicle: saline 99 % of control | dose: 200.0 mg/kg/injection, schedule: Q01DX009 (ip), vehicle: saline 93 % of control

CC12CC(C(=O)O)C(C)(C1=O)C(c1ccccc1)=C2c1ccccc1 (stereo unspecified)
inactive: dose: 25.0 mg/kg/injection, schedule: Q01DX009 (ip), vehicle: Klucel (hydroxypropylcellulose) (HPC) 92 % of control | dose: 50.0 mg/kg/injection, schedule: Q01DX009 (ip), vehicle: Klucel (hydroxypropylcellulose) (HPC) 93 % of control | dose: 100.0 mg/kg/injection, schedule: Q01DX009 (ip), vehicle: Klucel (hydroxypropylcellulose) (HPC) 97 % of control | dose: 200.0 mg/kg/injection, schedule: Q01DX009 (ip), vehicle: Klucel (hydroxypropylcellulose) (HPC) 94 % of control

Cc1cc(N=Nc2ccc(NC(=O)c3ccc(N)cc3)cc2C)ccc1N=Nc1ccc2cc(S(=O)(=O)O)cc(S(=O)(=O)O)c2c1
inactive: dose: 50.0 mg/kg/injection, schedule: Q01DX005 (ip), vehicle: saline with Tween-80 97 % of control | [10] 107 % of control | dose: 50.0 mg/kg/injection, schedule: Q01DX005 (ip), vehicle: suspension in saline 101 % of control | dose: 100.0 mg/kg/injection, schedule: Q01DX005 (ip), vehicle: saline with Tween-80 90 % of control | [11] 121 % of control | dose: 100.0 mg/kg/injection, schedule: Q01DX005 (ip), vehicle: suspension in saline 111 % of control | dose: 200.0 mg/kg/injection, schedule: Q01DX005 (ip), vehicle: saline with Tween-80 113 % of control | [12] 121 % of control | dose: 200.0 mg/kg/injection, schedule: Q01DX005 (ip), vehicle: suspension in saline 113 % of control | dose: 400.0 mg/kg/injection, schedule: Q01DX005 (ip), vehicle: saline with Tween-80 109 % of control

C[N+]1(C)N=C([O-])N(c2ccc(Cl)cc2)C1=O
inactive: dose: 100.0 mg/kg/injection, schedule: Q04DX002 (ip), vehicle: saline 100 % of control | dose: 200.0 mg/kg/injection, schedule: Q04DX002 (ip), vehicle: saline 103 % of control | dose: 400.0 mg/kg/injection, schedule: Q04DX002 (ip), vehicle: saline 102 % of control

CC(Sc1ncnc2[nH]ncc12)C(N)=O (stereo unspecified)
inactive: [1] 97 % of control | [2] 97 % of control | [3] 118 % of control

O=c1[nH]c2c(ccc3cnccc32)c2c1CCC2
inactive: dose: 12.5 mg/kg/injection, schedule: Q01DX009 (ip), vehicle: saline 122 % of control | [13] 94 % of control

O=C1CSC(c2ccc(Cl)cc2)N1c1ccc(N2C(=O)CSC2c2ccc(Cl)cc2)cc1 (stereo unspecified)
inactive: [4] 94 % of control | [5] 91 % of control | [6] 91 % of control
